# ChEMBL document CHEMBL3217496, “Inhibitors of Stat5 protein signalling” (Medchemcomm, 2012)
# Key:
# [1] = target: Tyrosine-protein kinase JAK2 (Mus musculus, UniProt Q62120, V617F); assay: Inhibition of JAK2 V617F mutant in mouse BAF3 cells; assay type: cell-based
# [2] = cells; settings: Homo sapiens, EOL1
# Description: Antiproliferative activity against human EOL-1 cells by CellTiterGlo assay
# [3] = tested on: BaF3; assay: Cytotoxicity against mouse BAF3 cells expressing JAK2 V617F mutant after 48 hrs by CellTiterGlo assay; assay type: functional, cell-based; settings: BaF3, 48 h
# [4] = target: T1, Signal transducer and activator of transcription 5A (Homo sapiens, UniProt P42229); assay: Inhibition of STAT5 DNA binding activity in human K562 cells after 24 hrs by electrophoretic mobility shift assay; assay type: cell-based
# T1 sequence (P42229 whole entry): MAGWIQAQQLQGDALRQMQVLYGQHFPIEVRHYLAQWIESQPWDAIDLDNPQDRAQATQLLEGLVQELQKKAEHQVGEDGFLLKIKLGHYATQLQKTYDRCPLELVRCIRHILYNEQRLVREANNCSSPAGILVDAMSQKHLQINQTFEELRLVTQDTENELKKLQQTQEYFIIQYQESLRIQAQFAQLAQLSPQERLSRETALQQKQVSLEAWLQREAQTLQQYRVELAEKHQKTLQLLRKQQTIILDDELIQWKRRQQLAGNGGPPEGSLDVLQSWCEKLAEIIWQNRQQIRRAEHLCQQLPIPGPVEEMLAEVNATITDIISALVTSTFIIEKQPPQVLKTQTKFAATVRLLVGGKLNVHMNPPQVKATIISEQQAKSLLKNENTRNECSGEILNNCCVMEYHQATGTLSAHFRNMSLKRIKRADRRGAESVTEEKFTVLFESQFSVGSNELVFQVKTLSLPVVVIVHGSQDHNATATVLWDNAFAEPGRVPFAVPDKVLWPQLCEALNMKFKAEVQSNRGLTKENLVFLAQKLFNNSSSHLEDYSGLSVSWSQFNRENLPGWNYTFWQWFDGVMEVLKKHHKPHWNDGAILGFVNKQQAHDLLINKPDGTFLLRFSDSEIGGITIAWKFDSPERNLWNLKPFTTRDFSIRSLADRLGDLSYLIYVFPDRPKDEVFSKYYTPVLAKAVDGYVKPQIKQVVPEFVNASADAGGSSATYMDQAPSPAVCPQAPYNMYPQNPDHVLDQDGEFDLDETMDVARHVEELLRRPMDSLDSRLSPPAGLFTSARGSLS
# [5] = target: Signal transducer and activator of transcription 3 (Homo sapiens, UniProt P40763); assay: Inhibition of STAT3 (unknown origin)
# Signal transducer and activator of transcription 3, sequence (P40763 whole entry): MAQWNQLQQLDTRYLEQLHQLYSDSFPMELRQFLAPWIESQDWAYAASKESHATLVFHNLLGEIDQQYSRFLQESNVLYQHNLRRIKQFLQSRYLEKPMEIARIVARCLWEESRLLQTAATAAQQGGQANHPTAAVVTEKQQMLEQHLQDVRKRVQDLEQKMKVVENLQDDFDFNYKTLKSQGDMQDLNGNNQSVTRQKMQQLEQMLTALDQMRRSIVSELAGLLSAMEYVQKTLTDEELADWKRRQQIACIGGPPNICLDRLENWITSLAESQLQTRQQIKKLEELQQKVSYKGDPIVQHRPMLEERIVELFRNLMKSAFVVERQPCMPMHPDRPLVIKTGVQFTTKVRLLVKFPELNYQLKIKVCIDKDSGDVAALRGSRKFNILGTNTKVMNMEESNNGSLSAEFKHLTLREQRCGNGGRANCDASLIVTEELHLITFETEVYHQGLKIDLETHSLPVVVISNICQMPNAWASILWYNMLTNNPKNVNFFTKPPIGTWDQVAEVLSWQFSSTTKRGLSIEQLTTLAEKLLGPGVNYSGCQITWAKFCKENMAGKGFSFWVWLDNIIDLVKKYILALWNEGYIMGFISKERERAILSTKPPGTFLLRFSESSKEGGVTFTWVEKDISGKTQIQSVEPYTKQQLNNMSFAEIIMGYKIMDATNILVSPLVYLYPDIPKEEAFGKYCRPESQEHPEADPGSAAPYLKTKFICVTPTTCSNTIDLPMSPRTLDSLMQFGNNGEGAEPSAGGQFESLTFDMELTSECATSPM
# [6] = target: T1, Signal transducer and activator of transcription 5A; assay: Inhibition of STAT5 (unknown origin)
# [7] = target: T2, Signal transducer and activator of transcription 1-alpha/beta (Homo sapiens, UniProt P42224); assay: Inhibition of STAT1 (unknown origin)
# T2 sequence (P42224 whole entry): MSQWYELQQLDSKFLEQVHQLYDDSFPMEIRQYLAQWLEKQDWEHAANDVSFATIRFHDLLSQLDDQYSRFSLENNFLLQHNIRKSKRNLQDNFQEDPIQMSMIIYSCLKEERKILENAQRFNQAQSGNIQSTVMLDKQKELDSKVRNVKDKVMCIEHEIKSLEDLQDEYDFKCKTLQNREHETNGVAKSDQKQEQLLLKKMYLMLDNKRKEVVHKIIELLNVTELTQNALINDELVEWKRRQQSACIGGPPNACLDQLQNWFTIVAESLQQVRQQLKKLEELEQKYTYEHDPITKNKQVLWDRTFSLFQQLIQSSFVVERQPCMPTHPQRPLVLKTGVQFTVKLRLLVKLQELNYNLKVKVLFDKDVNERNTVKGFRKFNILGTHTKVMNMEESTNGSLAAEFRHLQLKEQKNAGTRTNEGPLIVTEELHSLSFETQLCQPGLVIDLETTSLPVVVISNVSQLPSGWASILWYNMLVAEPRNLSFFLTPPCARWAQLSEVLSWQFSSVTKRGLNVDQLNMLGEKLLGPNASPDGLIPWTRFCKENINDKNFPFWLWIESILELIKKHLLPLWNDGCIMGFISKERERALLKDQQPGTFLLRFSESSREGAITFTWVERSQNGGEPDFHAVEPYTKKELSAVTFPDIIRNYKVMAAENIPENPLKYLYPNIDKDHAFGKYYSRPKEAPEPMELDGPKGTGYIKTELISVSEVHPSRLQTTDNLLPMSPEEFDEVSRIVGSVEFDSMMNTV
# Tyrosine-protein kinase JAK2, sequence (Q62120 as listed by the source V617F): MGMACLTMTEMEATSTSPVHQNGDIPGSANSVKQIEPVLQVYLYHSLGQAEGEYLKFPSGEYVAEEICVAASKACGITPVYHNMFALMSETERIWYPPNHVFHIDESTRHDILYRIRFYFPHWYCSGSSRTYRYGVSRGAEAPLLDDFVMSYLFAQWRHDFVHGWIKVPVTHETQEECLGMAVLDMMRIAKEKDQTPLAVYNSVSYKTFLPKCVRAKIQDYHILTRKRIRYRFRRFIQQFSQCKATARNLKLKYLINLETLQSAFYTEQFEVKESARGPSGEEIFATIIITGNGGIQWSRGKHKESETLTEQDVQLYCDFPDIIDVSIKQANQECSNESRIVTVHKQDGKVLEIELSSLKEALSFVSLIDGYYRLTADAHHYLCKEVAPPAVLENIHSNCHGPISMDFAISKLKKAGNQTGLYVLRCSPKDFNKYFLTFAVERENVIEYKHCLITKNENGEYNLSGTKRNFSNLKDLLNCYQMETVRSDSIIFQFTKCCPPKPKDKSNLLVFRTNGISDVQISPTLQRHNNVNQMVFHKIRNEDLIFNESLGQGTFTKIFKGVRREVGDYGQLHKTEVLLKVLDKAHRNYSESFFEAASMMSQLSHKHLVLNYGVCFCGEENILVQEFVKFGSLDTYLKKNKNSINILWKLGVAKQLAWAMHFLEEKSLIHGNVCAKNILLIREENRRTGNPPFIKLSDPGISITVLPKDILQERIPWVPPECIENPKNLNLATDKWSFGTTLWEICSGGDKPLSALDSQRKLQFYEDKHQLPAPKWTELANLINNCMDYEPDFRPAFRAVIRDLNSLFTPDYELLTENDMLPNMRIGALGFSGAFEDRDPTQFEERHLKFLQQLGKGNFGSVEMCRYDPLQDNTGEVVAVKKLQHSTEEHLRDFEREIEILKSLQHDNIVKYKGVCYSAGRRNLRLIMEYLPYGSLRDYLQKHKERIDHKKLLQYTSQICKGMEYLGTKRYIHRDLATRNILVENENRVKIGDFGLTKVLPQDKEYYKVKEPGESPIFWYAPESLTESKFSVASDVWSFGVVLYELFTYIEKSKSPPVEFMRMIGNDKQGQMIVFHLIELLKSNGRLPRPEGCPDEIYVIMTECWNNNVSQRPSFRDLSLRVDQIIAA
smiles,measurement,setting,value
N#CCNC(=O)c1ccc(-c2ccnc(Nc3ccc(N4CCOCC4)cc3)n2)cc1 [MOMELOTINIB],IC50,[1],1500 nM
CNC(=O)c1cc(Oc2ccc(NC(=O)Nc3ccc(Cl)c(C(F)(F)F)c3)cc2)ccn1 [SORAFENIB],IC50,[2],2.3 nM
N#CC[C@H](C1CCCC1)n1cc(-c2ncnc3[nH]ccc23)cn1 [RUXOLITINIB],IC50,[3],126 nM
Cc1cc(Nc2ncc3cc(-c4c(Cl)cccc4Cl)c(=O)n(C)c3n2)ccc1F,IC50,[4],5 nM
O=C(N/N=C/c1coc2ccccc2c1=O)c1cccnc1,IC50,[5],180000 nM
same,IC50,[6],47000 nM
same,IC50,[7],130000 nM
